ChEMBL document CHEMBL3351804, “Development of 2-aryl substituted quinazolin-4(3H)-one, pyrido[4,3-d]pyrimidin-4(3H)-one and pyrido[2,3-d]pyrimidin-4(3H)-one derivatives as microsomal prostaglandin E(2) synthase-1 inhibitors” (Bioorg Med Chem Lett, 2014)
Each block holds one compound with its values, some of them ahead of it.

Tests used:
[1] = target: T1, Prostaglandin E synthase (Homo sapiens) (UniProt O14684); assay: Inhibition of human recombinant mPGES-1 expressed in CHO cells using PGH2 as substrate at 1 uM incubated for 10 mins prior to substrate addition measured after 1 min
T1 sequence (whole entry): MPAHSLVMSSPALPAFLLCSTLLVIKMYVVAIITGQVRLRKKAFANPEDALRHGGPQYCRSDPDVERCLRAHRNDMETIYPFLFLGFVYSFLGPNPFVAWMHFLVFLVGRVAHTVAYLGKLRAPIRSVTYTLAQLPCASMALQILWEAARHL

[2] = target: T1, Prostaglandin E synthase (Homo sapiens); assay: Inhibition of human recombinant mPGES-1 expressed in CHO cells using PGH2 as substrate at 10 uM incubated for 10 mins prior to substrate addition measured after 1 min; type: cell-based
[3] = target: T2, Prostaglandin E synthase (Homo sapiens, UniProt O14684); assay: Inhibition of human recombinant mPGES-1 expressed in CHO cells using PGH2 as substrate incubated for 10 mins prior to substrate addition measured after 1 min
T2 sequence (O14684 whole entry): T1 sequence (whole entry)

[4] = target: T2, Prostaglandin E synthase; assay: Inhibition of mPGES-1 in human A549 cells assessed as inhibition of IL-1beta-induced PGE2 production incubated for 30 mins prior to IL-1beta challenge measured after 18 to 24 hrs; type: cell-based
[5] = target: T2, Prostaglandin E synthase; assay: Inhibition of mPGES-1 in human whole blood assessed as inhibition of LPS-induced PGE2 production after overnight incubation
[6] = target: T2, Prostaglandin E synthase; assay: Inhibition of mPGES-1 in human A549 cells; type: cell-based
[7] = target: T2, Prostaglandin E synthase; assay: Inhibition of human mPGES-1
[8] = Inhibition of guinea pig recombinant mPGES-1; set-up: species or system Cavia porcellus
[9] = target: T2, Prostaglandin E synthase; assay: Inhibition of mPGES-1 in human A549 cells using arachidonic acid as substrate assessed as inhibition of IL-1beta/TNF-alpha-induced PGE2 production incubated for 30 mins prior to substrate addition measured after 30 mins by EIA; type: cell-based
[10] = target: T2, Prostaglandin E synthase; assay: Inhibition of mPGES-1 in human A549 cells assessed as inhibition of IL-1beta-induced PGE2 production incubated for 30 mins prior to IL-1beta challenge measured after 18 hrs by plate reader analysis; type: cell-based
[11] = target: T2, Prostaglandin E synthase; assay: Inhibition of mPGES-1 in human whole blood assessed as inhibition of LPS-induced PGE2 production incubated for 30 mins prior to LPS challenge measured after 20 to 24 hrs by LC/MS/MS analysis

IC50 [3]: 26 nM
Compound: CC(C)C(=O)NCc1ccc(Cl)c(-c2nc3cc(C(F)(F)F)ccc3c(=O)[nH]2)c1

IC50 [3]: 481 nM
Compound: CC(C)C(=O)NCc1ccc(Cl)c(-c2nc3cc(Cl)c(-c4ccncc4)cc3c(=O)[nH]2)c1

inhibition [1]: 42%
inhibition [2]: 91%
Compound: CC(C)C(=O)NCc1ccc(Cl)c(-c2nc3cc(Cl)c(N4CC[C@H](O)C4)cc3c(=O)[nH]2)c1

inhibition [1]: 21%
inhibition [2]: 74%
Compound: CC(C)C(=O)NCc1ccc(Cl)c(-c2nc3cc(NC(=O)C4CC4)ccc3c(=O)[nH]2)c1

IC50 [3]: 261 nM
Compound: CC(C)C(=O)NCc1ccc(Cl)c(-c2nc3cc(Cl)c(N4CCOCC4)cc3c(=O)[nH]2)c1

IC50 [3]: 5 nM
Compound: CC(C)(C)C(=O)NCc1ccc(Cl)c(C(=O)Nc2ccc3cnn(-c4ccc(C(F)(F)F)cc4)c(=O)c3c2)c1

IC50 [3]: 55 nM
Compound: CC(C)C(=O)NCc1ccc(Cl)c(-c2nc3ccc(-c4ccc(C(F)(F)F)cc4)cc3c(=O)[nH]2)c1

IC50 [3]: 36 nM
Compound: CC(C)C(=O)NCc1ccc(Cl)c(-c2nc3cc(Cl)c(-c4ccc(C(F)(F)F)cc4)cc3c(=O)[nH]2)c1

IC50 [3]: 24 nM
Compound: CC(C)C(=O)NCc1ccc(Cl)c(-c2nc3cc(Cl)c(N4CCC(C(F)F)CC4)cc3c(=O)[nH]2)c1

IC50 [3]: 32 nM
Compound: CC(C)C(=O)NCc1ccc(Cl)c(-c2nc3cc(Cl)c(C4CC4)cc3c(=O)[nH]2)c1

IC50 [9]: 500 nM
Compound: O=C(Nc1ccc(C(F)(F)F)cn1)c1cccc(NC(=O)c2ccccc2C(F)(F)F)c1

IC50 [3]: 58 nM
Compound: CC(C)C(=O)NCc1ccc(Cl)c(-c2nc3cc(C4CC4)ccc3c(=O)[nH]2)c1

inhibition [1]: 52%
inhibition [2]: 98%
Compound: CC(C)C(=O)NCc1ccc(Cl)c(-c2nc3cc(F)ccc3c(=O)[nH]2)c1

inhibition [1]: 30%
inhibition [2]: 79%
Compound: CC(C)C(=O)NCc1ccc(Cl)c(-c2nc3cc(Cl)c(N4CCNC(=O)C4)cc3c(=O)[nH]2)c1

Second part, the compound before the results:

Compound: CC(C)C(=O)NCc1ccc(Cl)c(-c2nc3cc(Cl)c(N4CC[C@@H](O)C4)cc3c(=O)[nH]2)c1
inhibition [1]: 67%
inhibition [2]: 95%

Compound: CC(C)C(=O)NCc1ccc(Cl)c(-c2nc3cc(-c4ccc(C(F)(F)F)cc4)ccc3c(=O)[nH]2)c1
IC50 [3]: 7 nM
IC50 [4]: 10 nM
IC50 [5]: 234 nM

Compound: CC(C)C(=O)NCc1ccc(Cl)c(-c2nc3ccccc3c(=O)[nH]2)c1
inhibition [1]: 17%
inhibition [2]: 67%

Compound: CC(C)C(=O)NCc1cnc(C(F)F)c(-c2nc3cc(-c4ccc(C(F)(F)F)cc4)ncc3c(=O)[nH]2)c1
IC50 [3]: 4 nM
IC50 [4]: 111 nM

Compound: COCc1nc2c(C(=O)Nc3cccc(Cl)c3C)cc(NC(=O)c3c(Cl)cccc3C(F)(F)F)cc2[nH]1
IC50 [6]: 1.2 nM
IC50 [7]: 0.1 nM

Compound: COc1ccc2c(=O)[nH]c(-c3cc(CNC(=O)C(C)C)ccc3Cl)nc2c1
IC50 [3]: 304 nM

Compound: CC(=O)O[C@@H]1CCN(c2cc3c(=O)[nH]c(-c4cc(CNC(=O)C(C)C)ccc4Cl)nc3cc2Cl)C1
IC50 [3]: 248 nM

Compound: CC(=O)O[C@H]1CCN(c2cc3c(=O)[nH]c(-c4cc(CNC(=O)C(C)C)ccc4Cl)nc3cc2Cl)C1
IC50 [3]: 243 nM

Compound: CC(C)C(=O)NCc1ccc(Cl)c(-c2nc3cc(Cl)c(N4CCC(O)CC4)cc3c(=O)[nH]2)c1
IC50 [3]: 713 nM

Compound: CC(C)C(=O)NCc1ccc(Cl)c(-c2nc3cc(Cl)c(N4CC(C(=O)NC(C)(C)C)C4)cc3c(=O)[nH]2)c1
IC50 [3]: 59 nM

Compound: CC(C)C(=O)NCc1cnc(C(F)F)c(-c2nc3cc(-c4ccc(C(F)(F)F)cc4)ccc3c(=O)[nH]2)c1
IC50 [3]: 6 nM
IC50 [4]: 33 nM

Compound: CC(C)C(=O)NCc1ccc(Cl)c(-c2nc3cc(Cl)c(N4CCN(C)CC4)cc3c(=O)[nH]2)c1
inhibition [1]: 41%
inhibition [2]: 75%

Compound: N#Cc1cccc(C#N)c1-c1nc2c3ccc(Cl)cc3c3ccccc3c2[nH]1
IC50 [8]: 0.9 nM

Compound: CC(C)C(=O)NCc1ccc(Cl)c(-c2nc3cc(Br)ccc3c(=O)[nH]2)c1
IC50 [3]: 36 nM

Compound: COc1cc2c(=O)[nH]c(-c3cc(CNC(=O)C(C)C)ccc3Cl)nc2cc1Cl
IC50 [3]: 111 nM

Compound: Cc1nc(NC(=O)c2cc(CNC(=O)C(C)C)cnc2C(F)F)[nH]c1-c1ccc(C(F)(F)F)cc1
IC50 [10]: 12 nM
IC50 [11]: 12 nM

Compound: CC(C)C(=O)NCc1ccc(Cl)c(-c2nc3cc([N+](=O)[O-])ccc3c(=O)[nH]2)c1
IC50 [3]: 63 nM

Compound: O=C(Nc1ccnc2c(Nc3ccc(C(F)(F)F)cc3)nsc12)c1c(F)cccc1Cl
IC50 [3]: 157 nM

Compound: CC(C)C(=O)NCc1ccc(Cl)c(-c2nc3cc(-c4ccc(C(F)(F)F)nc4)ccc3c(=O)[nH]2)c1
IC50 [3]: 16 nM
IC50 [4]: 23 nM

Compound: CC(C)C(=O)NCc1ccc(Cl)c(-c2nc3nc(-c4ccc(C(F)(F)F)cc4)ccc3c(=O)[nH]2)c1
IC50 [3]: 10 nM
IC50 [4]: 11 nM
IC50 [5]: 328 nM

Compound: CC(C)C(=O)NCc1ccc(Cl)c(-c2nc3cc(Cl)ccc3c(=O)[nH]2)c1
IC50 [3]: 42 nM

Compound: CC(C)C(=O)NCc1ccc(Cl)c(-c2nc3cc(C(N)=O)ccc3c(=O)[nH]2)c1
inhibition [1]: 14%
inhibition [2]: 16%

Compound: O=C(Nc1ccc2cnn(-c3ccc(Br)cc3)c(=O)c2c1)c1c(F)cccc1Cl
IC50 [3]: 179 nM

Compound: CC(C)C(=O)NCc1ccc(Cl)c(-c2nc3cc(N4CCC(C(F)(F)F)CC4)ccc3c(=O)[nH]2)c1
IC50 [3]: 74 nM

Compound: CC(C)(C)C(=O)NCc1ccc(Cl)c(C(=O)Nc2ccnc3c(Nc4ccc(C(F)(F)F)cc4)nsc23)c1
IC50 [3]: 3 nM

Compound: CNC(=O)C1CCN(c2cc3c(=O)[nH]c(-c4cc(CNC(=O)C(C)C)ccc4Cl)nc3cc2Cl)CC1
inhibition [1]: 28%
inhibition [2]: 76%

Compound: CC(C)C(=O)NCc1ccc(Cl)c(-c2nc3cc(N)ccc3c(=O)[nH]2)c1
inhibition [1]: 16%
inhibition [2]: 70%
